{
  "source": "ChEMBL document CHEMBL1150146",
  "about": "“New terpenoids from the brown alga Stypopodium zonale” (J Nat Prod, 2002)",
  "assay_type_in_all_cases": "functional, cell-based",
  "key": {"[1]": {"tested_on": "HT-29", "test": "Cytotoxicity against human HT-29 cells"}, "[2]": {"test": "Cytotoxicity against human H116 cells"}, "[3]": {"tested_on": "A549", "test": "Cytotoxicity against human A549 cells"}},
  "data": [
    {"smiles": "COC(=O)CC[C@@H]1C(=C(C)C)CC[C@H]2[C@@]1(C)CC[C@H](C)[C@]2(C)Cc1cc(O)cc(C)c1O", "values": [
      {"measurement": "IC50", "setting": "[1]", "value": "< 2.5", "unit": "µg/mL"},
      {"measurement": "IC50", "setting": "[2]", "value": 2.5, "unit": "µg/mL"},
      {"measurement": "IC50", "setting": "[3]", "value": 2.5, "unit": "µg/mL"}
    ]}
  ]
}
